Source: US20100167933A1, “Piperazine Compounds With Herbicidal Action” (priority 2007, published 2010)

tested on: APESV (Apera spica-venti, windgrass); assay: greenhouse experiment, pre-emergence herbicidal activity against APESV; type: in vivo; conditions: pre-emergence method, application rate 0.5 kg/ha; scale from 0 to 100
From the text: The seeds of the test plants were sown separately for each species. For the pre-emergence treatment, the active ingredients, which had been suspended or emulsified in water, were applied directly after sowing by means of finely distributing nozzles. The containers were irrigated gently to promote germination and growth and subsequently covered with transparent plastic hoods until the plants had rooted. This cover caused uniform germination of the test plants, unless this has been impaired by the active ingredients. Depending on the species, the plants were kept at 10-25° C. or 20-35° C. The test period extended over 2 to 4 weeks. During this time, the plants were tended, and their response to the individual treatments was evaluated. Evaluation was carried out using a scale from 0 to 100. 100 means no emergence of the plants, or complete destruction of at least the aerial moieties, and 0 means no damage, or normal course of growth. A good herbicidal activity is given at values of at least 70 and a very good herbicidal activity is given at values of at least 85. The plants used in the greenhouse experiments belonged to the following species: [table]

Row | Structure (SMILES) | herbicidal activity against APESV
1 | CSC1(Cc2ccccc2)C(=O)N(C)C(=Cc2ccccc2C#N)C(=O)N1C (stereo not shown) [1a/1b, 2-(5-Benzyl-1,4-dimethyl-5-methylsulfanyl-3,6-dioxopiperazin-2-ylidenemethyl)benzonitrile] | good to very good
2 | CN1C(=O)C(Cc2ccccc2)(C(=O)C(F)(F)F)N(C)C(=O)/C1=C/c1ccccc1C#N (stereo not shown) [Example 4, 2-[5-Trifluoroacetyl-5-benzyl-1,4-dimethyl-3,6-dioxopiperazin-(Z)-2-ylidenemethyl]benzonitrile] | good to very good

same assay, conditions: pre-emergence method, application rate 1.0 kg/ha; scale from 0 to 100

Row | Structure (SMILES) | herbicidal activity against APESV
3 | C=CCC1(Cc2ccccc2)C(=O)N(C)/C(=C\c2ccccc2C#N)C(=O)N1C (stereo not shown) [Example 2, 2-(5-Benzyl-1,4-dimethyl-5-allyl-3,6-dioxo-piperazin-(Z)-2-ylidenemethyl)-benzonitrile] | very good (a very good herbicidal activity is given at values of at least 85)

tested on: not given; assay: not given; conditions: not given

Row | Structure (SMILES) | melting point [°C]
4 | CN1C(=O)c2cc3c([N+](=O)[O-])ccc(F)c3n2C(=O)C1(C)Cc1ccccc1 (stereo not shown) [Example 23] | 170 to 172
5 | CN1C(=O)c2cc3cccnc3n2C(=O)C1(C)Cc1ccccc1 (stereo not shown) [Example 24] | 180

Next, values leading:

Row | melting point [°C] | Structure (SMILES)
6 | 169 | CN1C(=O)C2(CC2c2ccccc2)N(C)C(=O)/C1=C/c1cccnc1Cl (stereo not shown) [Example 33]
7 | 224 | CN1C(=O)C2(CC2c2ccccc2)N(C)C(=O)/C1=C/c1cccnc1C#N (single isomer, unassigned) [Example 34]
8 | 78 | CN1C(=O)C2(CC2c2ccccc2)N(C)C(=O)/C1=C/c1ccccc1Br (stereo not shown) [Example 31]
9 | 190 | CN1C(=O)C2(CC2c2ccccc2)N(C)C(=O)/C1=C/c1ccccc1C#N (single isomer, unassigned) [Example 32]
10 | 145 | CN1C(=O)C2(CC2c2ccccc2)N(C)C(=O)/C1=C/c1ccccc1[N+](=O)[O-] (stereo not shown) [Example 30, 6-[1-(2-Nitrophenyl)-meth-(Z)-ylidene]-4,7-dimethyl-1-phenyl-4,7-diazaspiro[2.5]octane-5,8-dione]
